Measurements from article PMC10289903 (Investigational New Drugs, 2023).
Read-outs that look alike come from different tables or passages of the source.

Tested on: patients with locally advanced or metastatic solid tumors
Source text: This was a Phase Ib, multicenter, open-label, dose-finding clinical trial (NCT02610075). […] Three types of treatment schedules were investigated: cohorts bid 1, bid 2, qd 1.1, qd 2.1 and qd 3.1 received bid or qd treatment on a 5/9 schedule (5 days on treatment, followed by 9 days off) on a 14-day cycle. Cohorts qd 1.2, qd 2.2, and qd 3.2 received treatment on a 5/2 schedule (5 days on followed by 2 days off for 2 of 3 weeks) in a 21-day cycle. Cohorts qd 2.3 and qd 3.3 received treatment on a weekly 5/2 schedule in a 21-day cycle (Table 1). The highest dose level(s) at which less than one-third of evaluable patients (none of 3 patients or 1 of 6 patients) experienced a dose-limiting toxicity (DLT) was declared the MTD.
The per protocol analysis set was defined as a subset of the full analysis set, excluding subjects having an important protocol deviation, to be used for analyses of efficacy endpoints if appropriate.

[1] = qd 2.3: 250 mg qd 5/2 weekly (n=10)

C=CCn1c(=O)c2cnc(Nc3ccc(N4CCN(C)CC4)cc3)nc2n1-c1cccc(C(C)(C)O)n1 [adavosertib, Adavosertib]
Thrombocytopenia (treatment-related AE) (qd 2.1: 250 mg qd 5/9 (n=4)): 0 n (%)
Urinary tract infection (treatment-emergent AE) (qd 2.1: 250 mg qd 5/9 (n=4)): 0 n (%)
Vomiting (treatment-emergent AE) (qd 2.1: 250 mg qd 5/9 (n=4)): 0 n (%)
Vomiting (treatment-related AE) (qd 2.1: 250 mg qd 5/9 (n=4)): 0 n (%)
Abdominal pain (treatment-emergent AE) (qd 2.2: 250 mg qd 5/2 (n=3)): 0 n (%)
Abdominal pain (treatment-related AE) (qd 2.2: 250 mg qd 5/2 (n=3)): 0 n (%)
Alanine aminotransferase increased (treatment-emergent AE) (qd 2.2: 250 mg qd 5/2 (n=3)): 1 (33.3) n (%)
Anemia (treatment-emergent AE) (qd 2.2: 250 mg qd 5/2 (n=3)): 1 (33.3) n (%)
Anemia (treatment-related AE) (qd 2.2: 250 mg qd 5/2 (n=3)): 1 (33.3) n (%)
Any AE (treatment-emergent) (qd 2.2: 250 mg qd 5/2 (n=3)): 3 (100) n (%)
Any grade ≥ 3 AE (qd 2.2: 250 mg qd 5/2 (n=3)): 3 (100.0) n (%)
Any treatment-related AE (qd 2.2: 250 mg qd 5/2 (n=3)): 3 (100) n (%)
Any treatment-related grade ≥ 3 AE (qd 2.2: 250 mg qd 5/2 (n=3)): 3 (100.0) n (%)
Asthenia (treatment-emergent AE) (qd 2.2: 250 mg qd 5/2 (n=3)): 1 (33.3) n (%)
Asthenia (treatment-related AE) (qd 2.2: 250 mg qd 5/2 (n=3)): 1 (33.3) n (%)
Back pain (treatment-emergent AE) (qd 2.2: 250 mg qd 5/2 (n=3)): 1 (33.3) n (%)
Constipation (treatment-emergent AE) (qd 2.2: 250 mg qd 5/2 (n=3)): 1 (33.3) n (%)
Constipation (treatment-related AE) (qd 2.2: 250 mg qd 5/2 (n=3)): 1 (33.3) n (%)
Cough (treatment-emergent AE) (qd 2.2: 250 mg qd 5/2 (n=3)): 1 (33.3) n (%)
Decreased appetite (treatment-emergent AE) (qd 2.2: 250 mg qd 5/2 (n=3)): 1 (33.3) n (%)
Decreased appetite (treatment-related AE) (qd 2.2: 250 mg qd 5/2 (n=3)): 0 n (%)
Dehydration (treatment-emergent AE) (qd 2.2: 250 mg qd 5/2 (n=3)): 2 (66.7) n (%)
Dehydration (treatment-related AE) (qd 2.2: 250 mg qd 5/2 (n=3)): 1 (33.3) n (%)
Diarrhea (treatment-emergent AE) (qd 2.2: 250 mg qd 5/2 (n=3)): 2 (66.7) n (%)
Diarrhea (treatment-related AE) (qd 2.2: 250 mg qd 5/2 (n=3)): 2 (66.7) n (%)
Dizziness (treatment-emergent AE) (qd 2.2: 250 mg qd 5/2 (n=3)): 0 n (%)
Dyspepsia (treatment-emergent AE) (qd 2.2: 250 mg qd 5/2 (n=3)): 0 n (%)
Dyspepsia (treatment-related AE) (qd 2.2: 250 mg qd 5/2 (n=3)): 0 n (%)
Dyspnea (treatment-emergent AE) (qd 2.2: 250 mg qd 5/2 (n=3)): 0 n (%)
Edema peripheral (treatment-emergent AE) (qd 2.2: 250 mg qd 5/2 (n=3)): 0 n (%)
Fall (treatment-emergent AE) (qd 2.2: 250 mg qd 5/2 (n=3)): 1 (33.3) n (%)
Fatigue (treatment-emergent AE) (qd 2.2: 250 mg qd 5/2 (n=3)): 2 (66.7) n (%)
Fatigue (treatment-related AE) (qd 2.2: 250 mg qd 5/2 (n=3)): 2 (66.7) n (%)
Headache (treatment-emergent AE) (qd 2.2: 250 mg qd 5/2 (n=3)): 0 n (%)
Hypokalemia (treatment-emergent AE) (qd 2.2: 250 mg qd 5/2 (n=3)): 1 (33.3) n (%)
Insomnia (treatment-emergent AE) (qd 2.2: 250 mg qd 5/2 (n=3)): 0 n (%)
Muscle spasms (treatment-emergent AE) (qd 2.2: 250 mg qd 5/2 (n=3)): 1 (33.3) n (%)
Myalgia (treatment-emergent AE) (qd 2.2: 250 mg qd 5/2 (n=3)): 0 n (%)
Myalgia (treatment-related AE) (qd 2.2: 250 mg qd 5/2 (n=3)): 0 n (%)
Nausea (treatment-emergent AE) (qd 2.2: 250 mg qd 5/2 (n=3)): 2 (66.7) n (%)
Nausea (treatment-related AE) (qd 2.2: 250 mg qd 5/2 (n=3)): 2 (66.7) n (%)
Neutropenia (treatment-emergent AE) (qd 2.2: 250 mg qd 5/2 (n=3)): 0 n (%)
Neutropenia (treatment-related AE) (qd 2.2: 250 mg qd 5/2 (n=3)): 0 n (%)
Pneumonia (treatment-emergent AE) (qd 2.2: 250 mg qd 5/2 (n=3)): 1 (33.3) n (%)
Pyrexia (treatment-emergent AE) (qd 2.2: 250 mg qd 5/2 (n=3)): 2 (66.7) n (%)
Rash (treatment-emergent AE) (qd 2.2: 250 mg qd 5/2 (n=3)): 1 (33.3) n (%)
Thrombocytopenia (treatment-emergent AE) (qd 2.2: 250 mg qd 5/2 (n=3)): 1 (33.3) n (%)
Thrombocytopenia (treatment-related AE) (qd 2.2: 250 mg qd 5/2 (n=3)): 1 (33.3) n (%)
Urinary tract infection (treatment-emergent AE) (qd 2.2: 250 mg qd 5/2 (n=3)): 1 (33.3) n (%)
Vomiting (treatment-emergent AE) (qd 2.2: 250 mg qd 5/2 (n=3)): 2 (66.7) n (%)
Vomiting (treatment-related AE) (qd 2.2: 250 mg qd 5/2 (n=3)): 2 (66.7) n (%)
Abdominal pain (treatment-emergent AE) [1]: 2 (20.0) n (%)
Abdominal pain (treatment-related AE) [1]: 0 n (%)
Alanine aminotransferase increased (treatment-emergent AE) [1]: 1 (10.0) n (%)
Anemia (treatment-emergent AE) [1]: 2 (20.0) n (%)
Anemia (treatment-related AE) [1]: 1 (10.0) n (%)
Any AE (treatment-emergent) [1]: 8 (80.0) n (%)
Any grade ≥ 3 AE [1]: 5 (50.0) n (%)
Any treatment-related AE [1]: 8 (80.0) n (%)
Any treatment-related grade ≥ 3 AE [1]: 4 (40.0) n (%)
Asthenia (treatment-emergent AE) [1]: 0 n (%)
Asthenia (treatment-related AE) [1]: 0 n (%)
Back pain (treatment-emergent AE) [1]: 2 (20.0) n (%)
Constipation (treatment-emergent AE) [1]: 2 (20.0) n (%)
Constipation (treatment-related AE) [1]: 2 (20.0) n (%)
Cough (treatment-emergent AE) [1]: 0 n (%)
Decreased appetite (treatment-emergent AE) [1]: 3 (30.0) n (%)
Decreased appetite (treatment-related AE) [1]: 2 (20.0) n (%)
Dehydration (treatment-emergent AE) [1]: 5 (50.0) n (%)
Dehydration (treatment-related AE) [1]: 2 (20.0) n (%)
Diarrhea (treatment-emergent AE) [1]: 7 (70.0) n (%)
Diarrhea (treatment-related AE) [1]: 7 (70.0) n (%)
Dizziness (treatment-emergent AE) [1]: 2 (20.0) n (%)
Dyspepsia (treatment-emergent AE) [1]: 0 n (%)
Dyspepsia (treatment-related AE) [1]: 0 n (%)
Dyspnea (treatment-emergent AE) [1]: 0 n (%)
Edema peripheral (treatment-emergent AE) [1]: 2 (20.0) n (%)
Fall (treatment-emergent AE) [1]: 2 (20.0) n (%)
Fatigue (treatment-emergent AE) [1]: 3 (30.0) n (%)
Fatigue (treatment-related AE) [1]: 2 (20.0) n (%)
Headache (treatment-emergent AE) [1]: 0 n (%)
Hypokalemia (treatment-emergent AE) [1]: 3 (30.0) n (%)
Insomnia (treatment-emergent AE) [1]: 3 (30.0) n (%)
Muscle spasms (treatment-emergent AE) [1]: 1 (10.0) n (%)
Myalgia (treatment-emergent AE) [1]: 2 (20.0) n (%)
Myalgia (treatment-related AE) [1]: 2 (20.0) n (%)
Nausea (treatment-emergent AE) [1]: 3 (30.0) n (%)
Nausea (treatment-related AE) [1]: 2 (20.0) n (%)
Neutropenia (treatment-emergent AE) [1]: 1 (10.0) n (%)
Neutropenia (treatment-related AE) [1]: 1 (10.0) n (%)
Pneumonia (treatment-emergent AE) [1]: 1 (10.0) n (%)
Pyrexia (treatment-emergent AE) [1]: 0 n (%)
Rash (treatment-emergent AE) [1]: 2 (20.0) n (%)
Thrombocytopenia (treatment-emergent AE) [1]: 3 (30.0) n (%)
Thrombocytopenia (treatment-related AE) [1]: 3 (30.0) n (%)
Urinary tract infection (treatment-emergent AE) [1]: 1 (10.0) n (%)
Vomiting (treatment-emergent AE) [1]: 2 (20.0) n (%)
Vomiting (treatment-related AE) [1]: 1 (10.0) n (%)
Abdominal pain (treatment-emergent AE) (qd 3.1: 300 mg qd 5/9 (n=4)): 1 (25.0) n (%)
Abdominal pain (treatment-related AE) (qd 3.1: 300 mg qd 5/9 (n=4)): 1 (25.0) n (%)
Alanine aminotransferase increased (treatment-emergent AE) (qd 3.1: 300 mg qd 5/9 (n=4)): 0 n (%)
Anemia (treatment-emergent AE) (qd 3.1: 300 mg qd 5/9 (n=4)): 1 (25.0) n (%)
Anemia (treatment-related AE) (qd 3.1: 300 mg qd 5/9 (n=4)): 0 n (%)
Any AE (treatment-emergent) (qd 3.1: 300 mg qd 5/9 (n=4)): 4 (100) n (%)
Any grade ≥ 3 AE (qd 3.1: 300 mg qd 5/9 (n=4)): 3 (75.0) n (%)
Any treatment-related AE (qd 3.1: 300 mg qd 5/9 (n=4)): 2 (50.0) n (%)
Any treatment-related grade ≥ 3 AE (qd 3.1: 300 mg qd 5/9 (n=4)): 1 (25.0) n (%)
Asthenia (treatment-emergent AE) (qd 3.1: 300 mg qd 5/9 (n=4)): 0 n (%)
Asthenia (treatment-related AE) (qd 3.1: 300 mg qd 5/9 (n=4)): 0 n (%)
Back pain (treatment-emergent AE) (qd 3.1: 300 mg qd 5/9 (n=4)): 1 (25.0) n (%)
Constipation (treatment-emergent AE) (qd 3.1: 300 mg qd 5/9 (n=4)): 1 (25.0) n (%)
Constipation (treatment-related AE) (qd 3.1: 300 mg qd 5/9 (n=4)): 0 n (%)
Cough (treatment-emergent AE) (qd 3.1: 300 mg qd 5/9 (n=4)): 1 (25.0) n (%)
Decreased appetite (treatment-emergent AE) (qd 3.1: 300 mg qd 5/9 (n=4)): 0 n (%)
Decreased appetite (treatment-related AE) (qd 3.1: 300 mg qd 5/9 (n=4)): 0 n (%)
